Test results taken from ChEMBL document CHEMBL4033717, “Synthesis and anticancer activity of novel aza-artemisinin derivatives” (Bioorg Med Chem, 2017).

Tests used:
CCRF-CEM = test: Anti-proliferative activity against human CEM cells after 4 days by coulter counting method; assay type: functional, cell-based; settings: 96 h
HeLa = test: Anti-proliferative activity against human HeLa cells after 3 days by coulter counting method; assay type: functional, cell-based; settings: 72 h
HMEC-1 = test: Anti-proliferative activity against HMEC1 cells after 3 days by coulter counting method; assay type: cell-based; settings: Homo sapiens, HMEC-1, 72 h
[1] = Selectivity ratio of IC50 for HMEC1 cells to IC50 for human CEM cells

Structure (SMILES): C[C@@H]1CC[C@H]2[C@@H](C)C(=O)N[C@@H]3O[C@@]4(C)CC[C@@H]1[C@]32OO4
- IC50 (CCRF-CEM): 150 µM
- IC50 (HeLa): 147 µM
- IC50 (HMEC-1): > 250 µM

Structure (SMILES): C[C@@H]1CC[C@H]2[C@@H](C)C(OCCn3nnc4c3CCc3ccccc3-4)O[C@@H]3O[C@@]4(C)CC[C@@H]1[C@]32OO4 (stereo partly drawn)
- IC50 (CCRF-CEM): 157 µM
- IC50 (HeLa): > 250 µM
- IC50 (HMEC-1): > 250 µM

Structure (SMILES): C[C@H]1[C@H](OC(=O)C2CCc3c(nnn3CCc3c[nH]c4ccccc34)C2)O[C@@H]2O[C@@]3(C)CC[C@H]4[C@H](C)CC[C@@H]1[C@@]24OO3 (stereo partly drawn)
- IC50 (CCRF-CEM): 3.9 µM
- IC50 (HeLa): 12 µM
- IC50 (HMEC-1): 40 µM

Structure (SMILES): COc1cc(-n2cc(CN3C(=O)[C@H](C)[C@@H]4CC[C@@H](C)[C@@H]5CC[C@@]6(C)OO[C@]54[C@H]3O6)nn2)cc(OC)c1OC
- IC50 (CCRF-CEM): 17 µM
- Ratio IC50 [1]: 8 - 50
- IC50 (HeLa): 19 µM
- IC50 (HMEC-1): 155 µM

Structure (SMILES): C[C@@H]1CC[C@H]2[C@@H](C)C(OCCn3nnc4c3C[C@@H]3CC[C@@H]5[C@H](CC[C@]6(C)[C@@H](O)CC[C@@H]56)[C@@]3(C)C4)O[C@@H]3O[C@@]4(C)CC[C@@H]1[C@]32OO4 (stereo partly drawn)
- IC50 (CCRF-CEM): 8.9 µM
- IC50 (HeLa): 16 µM
- IC50 (HMEC-1): 28 µM

Structure (SMILES): C[C@@H]1CC[C@H]2[C@@H](C)C(=O)N(Cc3cn(C4OC(COCc5ccccc5)[C@H](OCc5ccccc5)[C@@H]4OCc4ccccc4)nn3)[C@@H]3O[C@@]4(C)CC[C@@H]1[C@@]23OO4 (stereo partly drawn)
- IC50 (CCRF-CEM): > 250 µM
- IC50 (HeLa): ≥ 250 µM
- IC50 (HMEC-1): > 250 µM

Structure (SMILES): C[C@@H]1CC[C@H]2[C@@H](C)C(OCCn3nncc3-c3ccc(Br)c(Br)c3)O[C@@H]3O[C@@]4(C)CC[C@@H]1[C@]32OO4 (stereo partly drawn)
- IC50 (CCRF-CEM): 10 µM
- IC50 (HeLa): 11 µM
- IC50 (HMEC-1): 26 µM

Structure (SMILES): C[C@@H]1CC[C@H]2[C@@H](C)C(=O)N(Cc3cn(C4CC(OC(=O)c5ccc(Cl)cc5)C(COC(=O)c5ccc(Cl)cc5)O4)nn3)[C@@H]3O[C@@]4(C)CC[C@@H]1[C@@]23OO4 (stereo partly drawn)
- IC50 (CCRF-CEM): 2.6 µM
- IC50 (HeLa): 6.1 µM
- IC50 (HMEC-1): 24 µM

Structure (SMILES): C[C@H]1[C@H](OC(=O)C2CCc3c(nnn3Cc3ccc4c(c3)OCO4)C2)O[C@@H]2O[C@@]3(C)CC[C@H]4[C@H](C)CC[C@@H]1[C@@]24OO3 (stereo partly drawn)
- IC50 (CCRF-CEM): 2.8 µM
- IC50 (HeLa): 11 µM
- IC50 (HMEC-1): 35 µM

Structure (SMILES): CC(C)c1cccc(-n2cc(CN3C(=O)[C@H](C)[C@@H]4CC[C@@H](C)[C@@H]5CC[C@@]6(C)OO[C@]54[C@H]3O6)nn2)c1
- IC50 (CCRF-CEM): 0.92 µM
- Ratio IC50 [1]: 30
- IC50 (HeLa): 1.2 µM
- IC50 (HMEC-1): 30 µM

Structure (SMILES): C[C@@H]1CC[C@H]2[C@@H](C)C(OCCn3nnc4c3CCN(Cc3ccccc3)C4)O[C@@H]3O[C@@]4(C)CC[C@@H]1[C@]32OO4 (stereo partly drawn)
- IC50 (CCRF-CEM): 20 µM
- IC50 (HeLa): 19 µM
- IC50 (HMEC-1): 30 µM

Structure (SMILES): COc1cc2c(cc1OC)-c1nnn(CCOC3O[C@@H]4O[C@@]5(C)CC[C@H]6[C@H](C)CC[C@@H]([C@H]3C)[C@@]46OO5)c1CC2 (stereo partly drawn)
- IC50 (CCRF-CEM): 30 µM
- IC50 (HeLa): 36 µM
- IC50 (HMEC-1): 150 µM

Structure (SMILES): C=C(C)[C@@H]1CC[C@]2(C(=O)O)CC[C@]3(C)[C@H](CC[C@@H]4[C@@]5(C)Cc6nnn(CCOC7O[C@@H]8O[C@@]9(C)CC[C@H]%10[C@H](C)CC[C@@H]([C@H]7C)[C@@]8%10OO9)c6C(C)(C)[C@@H]5CC[C@]43C)[C@@H]12 (stereo partly drawn)
- IC50 (CCRF-CEM): 5 µM
- IC50 (HeLa): 24 µM
- IC50 (HMEC-1): 121 µM

Structure (SMILES): C[C@@H]1CC[C@H]2[C@@H](C)C(=O)N(Cc3cn(-c4ccccc4)nn3)[C@@H]3O[C@@]4(C)CC[C@@H]1[C@@]23OO4
- IC50 (CCRF-CEM): 5.1 µM
- Ratio IC50 [1]: 8 - 50
- IC50 (HeLa): 36 µM
- IC50 (HMEC-1): > 250 µM

Structure (SMILES): C[C@@H]1CC[C@H]2[C@@H](C)C(OCCn3nnc4c3CCc3ccc([N+](=O)[O-])cc3-4)O[C@@H]3O[C@@]4(C)CC[C@@H]1[C@]32OO4 (stereo partly drawn)
- IC50 (CCRF-CEM): 95 µM
- IC50 (HeLa): 175 µM
- IC50 (HMEC-1): 160 µM

Structure (SMILES): C[C@@H]1CC[C@H]2[C@@H](C)C(OCCn3nncc3-c3cccc4ccccc34)O[C@@H]3O[C@@]4(C)CC[C@@H]1[C@]32OO4 (stereo partly drawn)
- IC50 (CCRF-CEM): 11 µM
- IC50 (HeLa): 12 µM
- IC50 (HMEC-1): 24 µM

Structure (SMILES): COC(=O)Cn1cc(CN2C(=O)[C@H](C)[C@@H]3CC[C@@H](C)[C@@H]4CC[C@@]5(C)OO[C@]43[C@H]2O5)nn1
- IC50 (CCRF-CEM): ≥ 250 µM
- IC50 (HeLa): > 250 µM
- IC50 (HMEC-1): > 250 µM

Structure (SMILES): C#CCN1C(=O)[C@H](C)[C@@H]2CC[C@@H](C)[C@@H]3CC[C@@]4(C)OO[C@]32[C@H]1O4
- IC50 (CCRF-CEM): 104 µM
- IC50 (HeLa): 98 µM
- IC50 (HMEC-1): 241 µM

Structure (SMILES): C[C@@H]1CC[C@H]2[C@@H](C)C(OCCn3nnc4c3-c3ccccc3CC4)O[C@@H]3O[C@@]4(C)CC[C@@H]1[C@]32OO4 (stereo partly drawn)
- IC50 (CCRF-CEM): 21 µM
- IC50 (HeLa): 20 µM
- IC50 (HMEC-1): 35 µM

Structure (SMILES): C[C@@H]1CC[C@H]2[C@@H](C)C(=O)N(Cc3cn(-c4ccc(C#N)cc4)nn3)[C@@H]3O[C@@]4(C)CC[C@@H]1[C@@]23OO4
- IC50 (CCRF-CEM): 18 µM
- IC50 (HeLa): 36 µM
- IC50 (HMEC-1): 26 µM

Structure (SMILES): C[C@@H]1CC[C@H]2[C@@H](C)C(OCCn3nncc3-c3ccccc3)O[C@@H]3O[C@@]4(C)CC[C@@H]1[C@]32OO4 (stereo partly drawn)
- IC50 (CCRF-CEM): 25 µM
- IC50 (HeLa): 37 µM
- IC50 (HMEC-1): 62 µM

Structure (SMILES): COc1cc(Cn2nnc3c2CCC(C(=O)O[C@@H]2O[C@@H]4O[C@@]5(C)CC[C@H]6[C@H](C)CC[C@@H]([C@H]2C)[C@@]46OO5)C3)cc(OC)c1OC (stereo partly drawn)
- IC50 (CCRF-CEM): 4.3 µM
- IC50 (HeLa): 21 µM
- IC50 (HMEC-1): 40 µM

Structure (SMILES): COc1ccc2c(c1)-c1nnn(CCOC3O[C@@H]4O[C@@]5(C)CC[C@H]6[C@H](C)CC[C@@H]([C@H]3C)[C@@]46OO5)c1CC2 (stereo partly drawn)
- IC50 (CCRF-CEM): 128 µM
- IC50 (HeLa): 143 µM
- IC50 (HMEC-1): 105 µM

Structure (SMILES): COc1cc(-c2cnnn2CCOC2O[C@@H]3O[C@@]4(C)CC[C@H]5[C@H](C)CC[C@@H]([C@H]2C)[C@@]35OO4)ccc1O (stereo partly drawn)
- IC50 (CCRF-CEM): 39 µM
- IC50 (HeLa): 23 µM
- IC50 (HMEC-1): 62 µM

Structure (SMILES): Cc1ccc(Cn2nnc3c2CCC(C(=O)O[C@@H]2O[C@@H]4O[C@@]5(C)CC[C@H]6[C@H](C)CC[C@@H]([C@H]2C)[C@@]46OO5)C3)cc1 (stereo partly drawn)
- IC50 (CCRF-CEM): 2.7 µM
- IC50 (HeLa): 11 µM
- IC50 (HMEC-1): 34 µM
